Test results from the NIST ThermoML archive (doi:10.1021/acs.jced.9b00377).
Numbers after ± are expanded uncertainties.

Experiments:
[1] = 100 kPa, Liquid; for viscosity: Falling or rolling sphere viscometry; for speed of sound: Single path-length method; for mass density: Vibrating tube method
[2] = refractive index (Na D-line) (dimensionless); settings: 100 kPa, Liquid, Standard Abbe refractometry

CCCC(=O)[O-].CN(C)C(=[NH2+])N(C)C [1,1,3,3-tetramethylguanidinium butanoate]
Settings	mass density, [1] [kg/m3]	refractive index, [2]	speed of sound, [1] [m/s]	viscosity, [1] [mPa·s]
293.15 K	1032.2 ± 2.2	1.4823 ± 0.01	1593.6 ± 50	2480 ± 1000
298.15 K	1028.74 ± 2.2	1.4809 ± 0.01	1576.5 ± 50	1638 ± 680
303.15 K	1025.27 ± 2.2	1.4794 ± 0.01	1559.4 ± 50	1049 ± 430
308.15 K	1021.74 ± 2.2	1.4781 ± 0.01	1542.3 ± 50	694.1 ± 280
313.15 K	1018.24 ± 2.1	1.4766 ± 0.01	1525.1 ± 50	453.1 ± 180
318.15 K	1014.77 ± 2.1	1.4753 ± 0.01	1508 ± 50	318.2 ± 130
323.15 K	1011.3 ± 2.1	1.474 ± 0.01	1490.9 ± 50	223.5 ± 90
328.15 K	1007.79 ± 2.1	1.4727 ± 0.01	1475.5 ± 50	158.5 ± 64
333.15 K	1004.24 ± 2.1	1.4716 ± 0.01	1458.4 ± 50	114 ± 46
338.15 K	1000.67 ± 2.1	1.4704 ± 0.01	1441.3 ± 50	88.1 ± 35
343.15 K	997.07 ± 2.1	1.4693 ± 0.01	1424.1 ± 50	65.7 ± 26

CCCCCCC(=O)[O-].CN(C)C(=[NH2+])N(C)C [1,1,3,3-tetramethylguanidinium heptanoate]
Settings	mass density, [1] [kg/m3]	refractive index, [2]	speed of sound, [1] [m/s]	viscosity, [1] [mPa·s]
293.15 K	986.16 ± 2.1	1.4792 ± 0.01	1535.5 ± 50	1827 ± 760
298.15 K	982.69 ± 2.1	1.4776 ± 0.01	1517.9 ± 50	1144 ± 470
303.15 K	979.2 ± 2.1	1.4759 ± 0.01	1500.2 ± 50	740.8 ± 300
308.15 K	975.61 ± 2.1	1.474 ± 0.01	1482.5 ± 50	493.9 ± 200
313.15 K	972.09 ± 2.1	1.4722 ± 0.01	1464.8 ± 50	336.9 ± 140
318.15 K	968.56 ± 2.1	1.4707 ± 0.01	1447.2 ± 50	242.3 ± 98
323.15 K	965 ± 2.1	1.4689 ± 0.01	1429.5 ± 50	172.9 ± 70
328.15 K	961.39 ± 2.1	1.4674 ± 0.01	1413.6 ± 50	126.7 ± 51
333.15 K	957.74 ± 2.1	1.4656 ± 0.01	1395.9 ± 50	94.4 ± 38
338.15 K	954.06 ± 2.1	1.464 ± 0.01	1378.2 ± 50	71.6 ± 29
343.15 K	950.35 ± 2.1	1.4628 ± 0.01	1360.6 ± 50	55.8 ± 22

CCCCCC(=O)[O-].CN(C)C(=[NH2+])N(C)C [1,1,3,3-tetramethylguanidinium hexanoate]
Settings	mass density, [1] [kg/m3]	refractive index, [2]	speed of sound, [1] [m/s]	viscosity, [1] [mPa·s]
293.15 K	997.51 ± 2.1	1.4701 ± 0.01	1539 ± 50	1534 ± 640
298.15 K	994.1 ± 2.1	1.4684 ± 0.01	1522.2 ± 50	1001 ± 410
303.15 K	990.61 ± 2.1	1.466 ± 0.01	1505.5 ± 50	657.8 ± 270
308.15 K	987.16 ± 2.1	1.4638 ± 0.01	1488.8 ± 50	442.1 ± 180
313.15 K	983.73 ± 2.1	1.4619 ± 0.01	1472.1 ± 50	309.8 ± 130
318.15 K	980.29 ± 2.1	1.4601 ± 0.01	1455.4 ± 50	221.1 ± 89
323.15 K	976.82 ± 2.1	1.458 ± 0.01	1438.7 ± 50	159.5 ± 64
328.15 K	973.32 ± 2.1	1.4563 ± 0.01	1423.6 ± 50	118.5 ± 48
333.15 K	969.78 ± 2.1	1.4544 ± 0.01	1406.9 ± 50	89.4 ± 36
338.15 K	966.22 ± 2.1	1.4528 ± 0.01	1390.2 ± 50	69.3 ± 28
343.15 K	962.63 ± 2.1	1.4511 ± 0.01	1373.5 ± 50	54 ± 22
